What was measured:
[1] = molecular target: AmpliTaqFS DNA polymerase (Thermus aquaticus, UniProt P19821, F667Y/G46D); assay: PEP; format: biochemical, Thermus aquaticus YT-1
[2] = molecular target: T1, Therminator II DNA polymerase (Thermococcus sp., UniProt Q56366, A485L/D141A/E143A/Y409V); assay: PEP; format: biochemical, Thermococcus species 9ºN-7
T1 sequence (Q56366 1-775 D141A/E143A/Y409V/A485L): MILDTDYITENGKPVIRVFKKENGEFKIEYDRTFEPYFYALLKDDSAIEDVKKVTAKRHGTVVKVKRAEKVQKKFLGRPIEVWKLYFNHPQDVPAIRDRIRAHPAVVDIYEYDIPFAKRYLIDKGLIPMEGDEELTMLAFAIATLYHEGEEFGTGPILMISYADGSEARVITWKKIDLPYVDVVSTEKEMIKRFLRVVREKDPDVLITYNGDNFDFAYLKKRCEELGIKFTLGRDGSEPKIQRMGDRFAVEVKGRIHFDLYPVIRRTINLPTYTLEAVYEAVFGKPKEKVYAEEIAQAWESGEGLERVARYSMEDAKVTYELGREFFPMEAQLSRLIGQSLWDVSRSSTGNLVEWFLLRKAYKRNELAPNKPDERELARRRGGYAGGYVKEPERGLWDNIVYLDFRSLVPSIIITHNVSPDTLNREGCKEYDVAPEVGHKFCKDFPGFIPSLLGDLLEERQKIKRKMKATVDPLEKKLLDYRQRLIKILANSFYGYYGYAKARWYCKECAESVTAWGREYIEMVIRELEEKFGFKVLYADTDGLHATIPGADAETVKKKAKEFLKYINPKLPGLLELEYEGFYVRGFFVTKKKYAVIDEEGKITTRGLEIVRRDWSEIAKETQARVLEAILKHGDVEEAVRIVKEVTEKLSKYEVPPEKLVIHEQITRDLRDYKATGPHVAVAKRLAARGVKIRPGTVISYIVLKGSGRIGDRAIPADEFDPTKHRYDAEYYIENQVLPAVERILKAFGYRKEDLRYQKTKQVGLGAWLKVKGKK

[3] = molecular target: T2, DeepVent(exo−) DNA polymerase (Pyrococcus sp. GB-D, UniProt Q51334, D141A/E143A); assay: PEP; format: biochemical, Pyrococcus species GB-D
T2 sequence (Q51334 with tags, fused parts or gaps D141A/E143A): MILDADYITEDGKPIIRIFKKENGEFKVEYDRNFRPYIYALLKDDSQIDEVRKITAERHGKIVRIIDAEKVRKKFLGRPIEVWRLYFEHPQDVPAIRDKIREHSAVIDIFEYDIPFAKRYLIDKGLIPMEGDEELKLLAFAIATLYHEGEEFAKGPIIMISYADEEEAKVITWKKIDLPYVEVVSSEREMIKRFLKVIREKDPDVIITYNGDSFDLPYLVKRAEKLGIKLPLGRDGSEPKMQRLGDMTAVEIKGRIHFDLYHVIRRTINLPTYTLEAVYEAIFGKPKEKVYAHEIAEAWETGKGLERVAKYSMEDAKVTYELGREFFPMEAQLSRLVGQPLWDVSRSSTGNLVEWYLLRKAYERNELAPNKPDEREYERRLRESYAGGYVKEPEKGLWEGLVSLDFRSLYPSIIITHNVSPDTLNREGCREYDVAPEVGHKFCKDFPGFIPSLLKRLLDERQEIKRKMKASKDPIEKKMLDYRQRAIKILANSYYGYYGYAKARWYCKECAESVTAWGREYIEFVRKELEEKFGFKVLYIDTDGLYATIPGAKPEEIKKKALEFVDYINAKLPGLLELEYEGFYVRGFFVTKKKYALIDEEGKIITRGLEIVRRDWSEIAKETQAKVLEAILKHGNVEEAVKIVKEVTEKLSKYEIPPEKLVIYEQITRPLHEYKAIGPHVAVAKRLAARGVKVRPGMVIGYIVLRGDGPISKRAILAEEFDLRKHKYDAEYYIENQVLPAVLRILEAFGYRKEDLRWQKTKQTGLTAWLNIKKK

Bst DNA polymerase = molecular target: T3, Bst DNA polymerase (Geobacillus stearothermophilus, UniProt P52026); assay: PEP mismatch; format: biochemical, Bacillus stearothermophilus
T3 sequence (P52026 289-876 limits assumed): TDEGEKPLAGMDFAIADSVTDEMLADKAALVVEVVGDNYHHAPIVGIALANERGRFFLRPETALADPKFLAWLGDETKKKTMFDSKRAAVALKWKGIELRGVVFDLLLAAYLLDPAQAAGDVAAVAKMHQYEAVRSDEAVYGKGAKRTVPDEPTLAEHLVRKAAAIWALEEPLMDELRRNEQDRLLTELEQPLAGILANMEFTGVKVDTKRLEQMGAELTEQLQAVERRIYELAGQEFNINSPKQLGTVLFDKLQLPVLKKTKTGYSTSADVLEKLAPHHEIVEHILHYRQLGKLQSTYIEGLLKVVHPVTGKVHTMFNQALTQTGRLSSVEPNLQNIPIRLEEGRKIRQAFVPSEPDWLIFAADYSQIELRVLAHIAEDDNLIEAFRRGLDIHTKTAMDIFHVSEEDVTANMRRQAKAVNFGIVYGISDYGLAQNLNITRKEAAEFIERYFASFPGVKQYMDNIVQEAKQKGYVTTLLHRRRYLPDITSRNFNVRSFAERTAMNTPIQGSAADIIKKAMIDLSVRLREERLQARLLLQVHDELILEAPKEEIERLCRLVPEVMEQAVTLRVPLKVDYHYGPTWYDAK

[4] = AmpliTaqFS, ratio of IC50 values
[5] = Therminator II, ratio of IC50 values

AmpliTaqFS DNA polymerase, sequence (P19821 whole entry G46D/F667Y): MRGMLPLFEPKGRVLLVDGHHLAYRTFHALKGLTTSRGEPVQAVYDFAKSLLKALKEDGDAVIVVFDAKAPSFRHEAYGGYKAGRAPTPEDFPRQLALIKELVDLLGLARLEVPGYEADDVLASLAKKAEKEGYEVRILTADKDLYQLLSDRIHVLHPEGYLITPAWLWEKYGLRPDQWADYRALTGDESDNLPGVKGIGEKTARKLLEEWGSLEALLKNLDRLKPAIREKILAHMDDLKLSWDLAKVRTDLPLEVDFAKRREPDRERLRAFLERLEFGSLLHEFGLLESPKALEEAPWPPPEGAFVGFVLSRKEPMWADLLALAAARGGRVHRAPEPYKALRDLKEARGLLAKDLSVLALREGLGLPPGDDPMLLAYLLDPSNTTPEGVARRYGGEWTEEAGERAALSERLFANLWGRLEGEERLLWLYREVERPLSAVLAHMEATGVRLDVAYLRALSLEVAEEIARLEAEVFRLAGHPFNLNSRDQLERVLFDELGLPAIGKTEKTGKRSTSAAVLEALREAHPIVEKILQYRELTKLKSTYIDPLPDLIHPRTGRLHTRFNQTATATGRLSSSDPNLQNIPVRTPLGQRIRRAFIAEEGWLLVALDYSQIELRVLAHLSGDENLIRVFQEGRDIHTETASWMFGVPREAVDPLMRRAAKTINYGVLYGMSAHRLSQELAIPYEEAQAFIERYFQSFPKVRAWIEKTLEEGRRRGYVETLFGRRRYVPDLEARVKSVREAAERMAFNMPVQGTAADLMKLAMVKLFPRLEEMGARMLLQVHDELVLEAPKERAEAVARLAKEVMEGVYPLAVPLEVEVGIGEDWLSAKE

Structure (SMILES) | Incorporation bias Cpd IIIc/dATP [1, 4] | Incorporation bias Cpd IIIc/ddATP [1, 4] | Incorporation bias Cpd IIIc/dATP [2, 5] | Incorporation bias Cpd IIIc/ddATP [2, 5] | IC50 [3] | Discrimination ratio, cytosine–adenine mismatch over complement thymidine base (Bst DNA polymerase; Bst, C template base (oligoTemplate)) | Nucleotide discrimination, IC50 of mismatched versus matched bases (Bst DNA polymerase; Bst, mismatched template bases A, C or G) | IC50 [1] | Incorporation bias ddATP/dATP [1, 4] | IC50 [2] | Incorporation bias ddATP/dATP [2, 5] | Mismatch incorporation (Bst DNA polymerase; final concentration of 500 μM (data not shown))
O=[N+]([O-])c1ccccc1CNc1ncnc2c1ncn2[C@H]1C[C@H](O)[C@@H](COP(=O)(O)OP(=O)(O)OP(=O)(O)O)O1 [Compound IIIc, N^6-(2-Nitrobenzyl)-2’-deoxyadenosine-5’-triphosphate] | 170 | 270 | 1.8 | 0.034 | 11 ± 0.6 nM | 1100 fold | greater than two orders of magnitude | – | – | – | – | –
Nc1ncnc2c1ncn2[C@H]1CC[C@@H](COP(=O)(O)OP(=O)(O)OP(=O)(O)O)O1 [ddATP, 2′,3′-dideoxyadenosine triphosphate, reference compound] | – | – | – | – | 3400 ± 400 nM | – | – | 3.3 ± 0.1 nM | 0.62 | 230 ± 30 nM | 52 | did not show mismatch incorporation
